Test results reported in ChEMBL document CHEMBL1144455, “A small molecule-kinase interaction map for clinical kinase inhibitors” (Nat Biotechnol, 2005).

Legend:
[1] = target: Mitogen-activated protein kinase kinase kinase kinase 5 (Homo sapiens, UniProt Q9Y4K4)
[2] = target: Activated CDC42 kinase 1 (Homo sapiens, UniProt Q07912)
[3] = target: Ephrin type-A receptor 5 (Homo sapiens, UniProt P54756)
[4] = target: Dual specificity protein kinase CLK3 (Homo sapiens, UniProt P49761)
[5] = target: Dual specificity protein kinase CLK1 (Homo sapiens, UniProt P49759)
[6] = target: Tyrosine-protein kinase Fer (Homo sapiens, UniProt P16591)
[7] = target: Tyrosine-protein kinase Lyn (Homo sapiens, UniProt P07948)
[8] = target: Tyrosine-protein kinase JAK2 (Homo sapiens, UniProt O60674)
[9] = target: Serine/threonine-protein kinase PAK 1 (Homo sapiens, UniProt Q13153)
[10] = target: Tyrosine-protein kinase FRK (Homo sapiens, UniProt P42685)
[11] = target: Mitogen-activated protein kinase 10 (Homo sapiens, UniProt P53779)
[12] = target: Protein-tyrosine kinase 6 (Homo sapiens, UniProt Q13882)
[13] = target: Serine/threonine-protein kinase pim-2 (Homo sapiens, UniProt Q9P1W9)
[14] = target: T1, Aurora kinase A (Homo sapiens, UniProt O14965)
T1 sequence (O14965 whole entry): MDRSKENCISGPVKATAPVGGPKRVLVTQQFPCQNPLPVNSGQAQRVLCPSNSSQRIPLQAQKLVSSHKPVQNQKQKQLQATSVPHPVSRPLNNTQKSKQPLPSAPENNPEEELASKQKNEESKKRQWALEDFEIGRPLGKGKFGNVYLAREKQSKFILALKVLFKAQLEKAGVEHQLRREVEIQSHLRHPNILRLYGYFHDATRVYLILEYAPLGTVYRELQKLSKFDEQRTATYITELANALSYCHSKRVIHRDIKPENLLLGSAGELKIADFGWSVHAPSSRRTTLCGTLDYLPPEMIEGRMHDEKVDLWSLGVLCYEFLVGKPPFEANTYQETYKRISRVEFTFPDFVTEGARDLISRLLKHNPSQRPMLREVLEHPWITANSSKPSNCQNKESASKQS

[15] = target: BMP-2-inducible protein kinase (Homo sapiens, UniProt Q9NSY1)
[16] = target: Calcium/calmodulin-dependent protein kinase kinase 2 (Homo sapiens, UniProt Q96RR4)
[17] = target: T2, Serine/threonine-protein kinase 4 (Homo sapiens, UniProt Q13043)
T2 sequence (Q13043 whole entry): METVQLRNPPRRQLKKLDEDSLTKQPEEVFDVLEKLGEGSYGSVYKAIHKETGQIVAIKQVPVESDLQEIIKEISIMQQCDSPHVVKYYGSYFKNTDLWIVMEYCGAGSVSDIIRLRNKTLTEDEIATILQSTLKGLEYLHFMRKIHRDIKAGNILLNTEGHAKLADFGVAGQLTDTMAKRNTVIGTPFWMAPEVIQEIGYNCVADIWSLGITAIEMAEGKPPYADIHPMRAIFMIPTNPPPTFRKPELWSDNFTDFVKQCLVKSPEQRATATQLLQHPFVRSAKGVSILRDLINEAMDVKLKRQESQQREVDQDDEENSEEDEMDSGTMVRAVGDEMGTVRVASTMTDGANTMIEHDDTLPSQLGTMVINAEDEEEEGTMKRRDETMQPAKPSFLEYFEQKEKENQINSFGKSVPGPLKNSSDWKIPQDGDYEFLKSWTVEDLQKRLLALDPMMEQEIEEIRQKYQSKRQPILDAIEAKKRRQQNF

[18] = target: T3, Dual specificity protein kinase TTK (Homo sapiens, UniProt P33981)
T3 sequence (P33981 whole entry): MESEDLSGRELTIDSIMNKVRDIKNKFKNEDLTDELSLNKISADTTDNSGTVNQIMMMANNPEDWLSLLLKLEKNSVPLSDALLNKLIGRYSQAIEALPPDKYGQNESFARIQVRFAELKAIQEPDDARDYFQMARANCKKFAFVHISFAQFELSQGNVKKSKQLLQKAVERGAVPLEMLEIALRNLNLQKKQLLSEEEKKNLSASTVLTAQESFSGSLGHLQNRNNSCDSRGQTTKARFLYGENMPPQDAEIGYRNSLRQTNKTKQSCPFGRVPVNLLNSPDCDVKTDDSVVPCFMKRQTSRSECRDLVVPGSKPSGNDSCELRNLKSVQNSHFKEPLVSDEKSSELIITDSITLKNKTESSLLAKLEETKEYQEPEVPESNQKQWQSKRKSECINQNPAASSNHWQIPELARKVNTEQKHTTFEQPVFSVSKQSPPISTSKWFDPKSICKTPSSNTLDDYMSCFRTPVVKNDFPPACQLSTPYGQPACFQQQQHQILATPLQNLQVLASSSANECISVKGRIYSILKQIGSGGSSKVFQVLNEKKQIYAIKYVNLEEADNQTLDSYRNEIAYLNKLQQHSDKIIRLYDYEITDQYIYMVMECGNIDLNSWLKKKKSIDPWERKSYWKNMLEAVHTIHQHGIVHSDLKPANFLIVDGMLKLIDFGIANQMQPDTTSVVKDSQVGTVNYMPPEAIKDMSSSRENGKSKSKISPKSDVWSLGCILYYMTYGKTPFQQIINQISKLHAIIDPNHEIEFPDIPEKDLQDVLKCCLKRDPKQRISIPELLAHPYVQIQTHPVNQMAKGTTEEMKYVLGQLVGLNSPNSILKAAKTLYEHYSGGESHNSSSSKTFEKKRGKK

[19] = target: Serine/threonine-protein kinase 16 (Homo sapiens, UniProt O75716)
[20] = target: Cyclin-dependent kinase 2 (Homo sapiens, UniProt P24941)
[21] = target: Ribosomal protein S6 kinase alpha-5 (Homo sapiens, UniProt O75582)
[22] = target: Death-associated protein kinase 2 (Homo sapiens, UniProt Q9UIK4)
[23] = target: Death-associated protein kinase 3 (Homo sapiens, UniProt O43293)
Chain of Death-associated protein kinase 3 (O43293 whole entry): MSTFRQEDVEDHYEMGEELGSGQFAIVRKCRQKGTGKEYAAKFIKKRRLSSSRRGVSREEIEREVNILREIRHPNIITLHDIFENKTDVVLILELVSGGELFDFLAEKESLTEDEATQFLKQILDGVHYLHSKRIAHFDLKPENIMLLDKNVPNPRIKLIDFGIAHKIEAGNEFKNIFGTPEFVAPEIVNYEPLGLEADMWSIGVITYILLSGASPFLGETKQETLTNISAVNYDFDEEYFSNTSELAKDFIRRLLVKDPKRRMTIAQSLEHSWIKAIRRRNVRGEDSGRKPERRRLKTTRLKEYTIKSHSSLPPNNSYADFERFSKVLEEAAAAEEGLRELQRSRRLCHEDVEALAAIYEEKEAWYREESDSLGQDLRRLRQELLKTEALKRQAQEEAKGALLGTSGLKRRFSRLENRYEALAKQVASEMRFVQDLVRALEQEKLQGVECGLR

Chain of Tyrosine-protein kinase Lyn (P07948 whole entry): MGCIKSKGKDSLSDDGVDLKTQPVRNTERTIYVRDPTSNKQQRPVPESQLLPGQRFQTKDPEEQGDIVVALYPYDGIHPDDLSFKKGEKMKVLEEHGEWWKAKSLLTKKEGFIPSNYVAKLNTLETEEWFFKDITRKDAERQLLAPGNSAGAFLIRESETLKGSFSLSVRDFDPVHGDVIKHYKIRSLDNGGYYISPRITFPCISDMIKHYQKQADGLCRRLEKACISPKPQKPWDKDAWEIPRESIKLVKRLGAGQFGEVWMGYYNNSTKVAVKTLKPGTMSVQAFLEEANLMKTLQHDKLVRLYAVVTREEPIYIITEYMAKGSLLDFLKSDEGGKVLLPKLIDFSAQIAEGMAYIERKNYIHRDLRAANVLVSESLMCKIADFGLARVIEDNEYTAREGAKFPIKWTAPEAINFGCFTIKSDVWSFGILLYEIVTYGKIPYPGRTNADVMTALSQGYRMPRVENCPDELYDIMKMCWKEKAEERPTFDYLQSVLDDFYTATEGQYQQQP
Chain of Activated CDC42 kinase 1 (Q07912 whole entry): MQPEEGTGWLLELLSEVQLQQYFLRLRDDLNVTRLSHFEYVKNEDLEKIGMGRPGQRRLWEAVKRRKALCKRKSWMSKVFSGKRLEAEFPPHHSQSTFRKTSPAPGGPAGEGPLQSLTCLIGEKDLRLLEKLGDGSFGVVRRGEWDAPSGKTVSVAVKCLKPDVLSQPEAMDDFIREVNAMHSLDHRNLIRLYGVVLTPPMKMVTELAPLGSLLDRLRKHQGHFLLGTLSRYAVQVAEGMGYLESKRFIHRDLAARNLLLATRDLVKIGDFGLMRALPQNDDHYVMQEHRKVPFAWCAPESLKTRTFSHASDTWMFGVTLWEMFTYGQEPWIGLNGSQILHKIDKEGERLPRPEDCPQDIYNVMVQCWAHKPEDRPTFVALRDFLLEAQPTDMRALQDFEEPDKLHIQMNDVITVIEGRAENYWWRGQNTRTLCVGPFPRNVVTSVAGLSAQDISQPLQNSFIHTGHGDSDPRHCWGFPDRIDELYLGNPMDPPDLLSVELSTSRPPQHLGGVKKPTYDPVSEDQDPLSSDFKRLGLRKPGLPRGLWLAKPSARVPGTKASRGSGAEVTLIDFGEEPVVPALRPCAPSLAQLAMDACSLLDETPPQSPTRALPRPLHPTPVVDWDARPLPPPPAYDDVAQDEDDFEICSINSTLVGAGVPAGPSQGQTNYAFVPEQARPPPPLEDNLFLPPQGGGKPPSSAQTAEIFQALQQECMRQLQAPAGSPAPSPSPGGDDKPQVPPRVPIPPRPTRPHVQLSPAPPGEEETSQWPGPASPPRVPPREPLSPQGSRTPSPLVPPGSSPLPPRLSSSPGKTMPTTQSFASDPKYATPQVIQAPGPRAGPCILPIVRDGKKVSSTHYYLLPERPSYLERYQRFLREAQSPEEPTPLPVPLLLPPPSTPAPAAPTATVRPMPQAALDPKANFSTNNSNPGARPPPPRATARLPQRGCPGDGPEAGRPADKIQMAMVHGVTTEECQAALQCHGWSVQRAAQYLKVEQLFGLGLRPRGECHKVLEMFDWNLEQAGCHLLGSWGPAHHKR
Chain of Ribosomal protein S6 kinase alpha-5 (O75582 whole entry): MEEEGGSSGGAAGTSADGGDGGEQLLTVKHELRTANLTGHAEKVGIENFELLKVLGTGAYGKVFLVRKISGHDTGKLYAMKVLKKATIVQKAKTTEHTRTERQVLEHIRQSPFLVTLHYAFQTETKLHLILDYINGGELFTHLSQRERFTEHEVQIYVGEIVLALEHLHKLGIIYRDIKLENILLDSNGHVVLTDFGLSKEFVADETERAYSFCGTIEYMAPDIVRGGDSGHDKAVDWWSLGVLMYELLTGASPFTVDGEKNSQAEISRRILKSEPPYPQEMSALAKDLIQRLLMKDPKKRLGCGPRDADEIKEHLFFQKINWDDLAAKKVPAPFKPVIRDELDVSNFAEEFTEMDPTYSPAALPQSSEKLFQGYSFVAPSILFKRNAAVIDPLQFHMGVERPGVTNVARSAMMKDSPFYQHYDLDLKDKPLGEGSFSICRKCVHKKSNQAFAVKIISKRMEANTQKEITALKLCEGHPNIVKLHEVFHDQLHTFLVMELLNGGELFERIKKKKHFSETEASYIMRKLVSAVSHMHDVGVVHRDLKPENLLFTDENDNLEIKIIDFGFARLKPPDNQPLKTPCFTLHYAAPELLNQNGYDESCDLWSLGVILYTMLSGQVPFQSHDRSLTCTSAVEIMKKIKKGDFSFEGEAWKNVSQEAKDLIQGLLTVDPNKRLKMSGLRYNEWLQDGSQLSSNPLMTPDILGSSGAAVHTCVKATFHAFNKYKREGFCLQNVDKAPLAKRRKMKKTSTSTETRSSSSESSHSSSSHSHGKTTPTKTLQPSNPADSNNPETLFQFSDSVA
Chain of Dual specificity protein kinase CLK1 (P49759 whole entry): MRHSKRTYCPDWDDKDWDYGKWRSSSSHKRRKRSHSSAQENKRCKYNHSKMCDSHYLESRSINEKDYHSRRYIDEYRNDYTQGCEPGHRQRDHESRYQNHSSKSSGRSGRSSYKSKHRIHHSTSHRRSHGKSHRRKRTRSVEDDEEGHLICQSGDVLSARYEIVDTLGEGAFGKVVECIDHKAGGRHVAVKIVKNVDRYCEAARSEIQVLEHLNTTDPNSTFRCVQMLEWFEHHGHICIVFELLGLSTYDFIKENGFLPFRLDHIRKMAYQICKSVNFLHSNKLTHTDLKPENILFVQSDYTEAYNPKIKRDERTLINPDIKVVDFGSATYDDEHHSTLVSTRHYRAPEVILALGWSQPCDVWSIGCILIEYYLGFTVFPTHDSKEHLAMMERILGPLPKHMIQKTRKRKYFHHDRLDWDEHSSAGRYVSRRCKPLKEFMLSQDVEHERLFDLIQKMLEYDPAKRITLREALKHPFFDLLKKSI
Chain of Tyrosine-protein kinase JAK2 (O60674 whole entry): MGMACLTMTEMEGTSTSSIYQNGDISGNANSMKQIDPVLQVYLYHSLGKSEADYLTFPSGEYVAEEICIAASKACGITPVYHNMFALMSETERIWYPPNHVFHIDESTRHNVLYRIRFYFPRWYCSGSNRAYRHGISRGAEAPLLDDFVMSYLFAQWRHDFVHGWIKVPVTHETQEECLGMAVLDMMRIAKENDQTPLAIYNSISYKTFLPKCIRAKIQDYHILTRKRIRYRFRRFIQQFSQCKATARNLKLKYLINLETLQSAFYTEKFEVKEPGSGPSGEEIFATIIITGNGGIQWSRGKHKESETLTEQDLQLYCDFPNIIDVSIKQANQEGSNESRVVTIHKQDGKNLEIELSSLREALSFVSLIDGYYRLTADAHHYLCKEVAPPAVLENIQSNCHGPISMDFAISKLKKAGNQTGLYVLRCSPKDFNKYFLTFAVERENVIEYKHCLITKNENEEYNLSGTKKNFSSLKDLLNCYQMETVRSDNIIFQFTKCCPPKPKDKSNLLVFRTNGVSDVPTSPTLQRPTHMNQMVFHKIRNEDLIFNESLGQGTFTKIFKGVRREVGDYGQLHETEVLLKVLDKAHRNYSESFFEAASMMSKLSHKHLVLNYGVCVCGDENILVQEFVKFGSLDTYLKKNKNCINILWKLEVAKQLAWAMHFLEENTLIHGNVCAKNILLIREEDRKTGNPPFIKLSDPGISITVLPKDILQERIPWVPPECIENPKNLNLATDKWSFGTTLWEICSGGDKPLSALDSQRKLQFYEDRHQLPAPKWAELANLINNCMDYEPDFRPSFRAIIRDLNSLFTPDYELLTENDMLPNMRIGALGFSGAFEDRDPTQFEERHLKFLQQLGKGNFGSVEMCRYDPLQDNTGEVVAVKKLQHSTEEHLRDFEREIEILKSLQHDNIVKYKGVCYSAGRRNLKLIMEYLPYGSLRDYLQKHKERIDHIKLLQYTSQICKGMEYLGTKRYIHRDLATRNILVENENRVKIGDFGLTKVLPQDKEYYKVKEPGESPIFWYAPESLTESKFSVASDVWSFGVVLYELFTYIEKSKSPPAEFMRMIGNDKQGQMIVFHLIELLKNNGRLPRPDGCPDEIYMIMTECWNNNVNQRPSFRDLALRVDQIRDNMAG
Chain of Dual specificity protein kinase CLK3 (P49761 whole entry): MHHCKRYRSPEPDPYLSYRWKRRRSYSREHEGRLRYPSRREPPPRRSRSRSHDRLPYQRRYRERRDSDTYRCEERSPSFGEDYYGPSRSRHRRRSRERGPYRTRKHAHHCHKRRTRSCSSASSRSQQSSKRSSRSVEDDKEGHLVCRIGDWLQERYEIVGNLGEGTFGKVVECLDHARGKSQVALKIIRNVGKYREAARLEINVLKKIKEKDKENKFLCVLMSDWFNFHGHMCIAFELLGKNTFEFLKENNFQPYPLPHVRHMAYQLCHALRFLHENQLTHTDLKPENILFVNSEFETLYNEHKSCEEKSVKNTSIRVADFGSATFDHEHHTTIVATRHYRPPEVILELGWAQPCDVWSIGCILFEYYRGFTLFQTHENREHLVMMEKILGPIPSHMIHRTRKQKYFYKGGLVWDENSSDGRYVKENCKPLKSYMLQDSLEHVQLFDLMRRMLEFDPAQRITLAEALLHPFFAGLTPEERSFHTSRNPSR

**Q.** Which Kd [1] does the source give for `CCOc1cc2ncc(C#N)c(Nc3ccc(F)c(Cl)c3)c2cc1NC(=O)/C=C/CN(C)C` [PELITINIB] here?
**A.** 3.7 nM

**Q.** And the Kd [2]?
**A.** 890 nM

**Q.** And the Kd [3]?
**A.** 710 nM

**Q.** What about the Kd [4] of the same compound?
**A.** 2100 nM

**Q.** What about the Kd [5] of the same compound?
**A.** 1000 nM

**Q.** And the Kd [6]?
**A.** 250 nM

**Q.** And the Kd [7]?
**A.** 960 nM

**Q.** And the Kd [8]?
**A.** 2000 nM

**Q.** And the Kd [9]?
**A.** 2100 nM

**Q.** What does the source list for `Oc1ccc(-c2nc(-c3ccc(F)cc3)c(-c3ccncc3)[nH]2)cc1` [SB-202190]?
**A.** Kd [10]: 6 µM; Kd [11]: 51 nM; Kd [12]: 3 µM

**Q.** What does the source list for `Oc1c2ccccc2c2c3c(cccc13)N=N2` [SP-600125]?
**A.** Kd [13]: 460 nM; Kd [14]: 980 nM; Kd [15]: 25 nM; Kd [16]: 7.5 µM; Kd [17]: 2200 nM; Kd [18]: 98 nM; Kd [19]: 510 nM; Kd [20]: 3.2 µM; Kd [21]: 1700 nM; Kd [22]: 610 nM; Kd [23]: 410 nM
